Data reported in ChEMBL document CHEMBL1201862, “PubChem BioAssay data set” (2004).
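How tested: cells in 96-well plates exposed to compound for 48 hours at five concentrations. GI50: concentration for 50% inhibition of growth.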 The source made the active and inactive calls. Cut-off read from the data, not from the text of the source: active = GI50 up to about 1.1 µM and inactive = higher.

What was measured:
Assay in all cases: NCI-60 cell line screen, 48 h
SNB-19 = test system: SNB-19
T47D = test system: T47D
COLO 205 = test system: COLO 205
A549 = test system: A549
OVCAR-4 = test system: OVCAR-4
NCI-H226 = test system: NCI-H226
SR = test system: SR
RPMI-8226 = test system: RPMI-8226
K562 = test system: K562
PC-3 = test system: PC-3
TK-10 = test system: TK-10
IGROV-1 = test system: IGROV-1
M14 = test system: M14
Hs-578T = test system: Hs-578T
HOP-92 = test system: HOP-92
MDA-MB-435 = test system: MDA-MB-435
SK-OV-3 = test system: SK-OV-3
SNB-75 = test system: SNB-75
SF-268 = test system: SF-268
EKVX = test system: EKVX

SMILES	GI50 (SNB-19)	GI50 (T47D)	GI50 (COLO 205)	GI50 (A549)	GI50 (OVCAR-4)	GI50 (NCI-H226)	GI50 (SR)	GI50 (RPMI-8226)	GI50 (K562)	GI50 (PC-3)	GI50 (TK-10)	GI50 (IGROV-1)	GI50 (M14)	GI50 (Hs-578T)	GI50 (HOP-92)	GI50 (MDA-MB-435)	GI50 (SK-OV-3)	GI50 (SNB-75)	GI50 (SF-268)	GI50 (EKVX)
CN1CCN(c2ncc3c(n2)sc2c(=O)n(-c4ccccc4)cnc23)CC1	> 100 µM (inactive)	> 100 µM (inactive)	> 100 µM (inactive)	> 100 µM (inactive)	> 100 µM (inactive)	> 100 µM (inactive)	> 100 µM (inactive)	> 100 µM (inactive)	> 100 µM (inactive)	> 100 µM (inactive)	> 100 µM (inactive)	> 100 µM (inactive)	> 100 µM (inactive)	> 100 µM (inactive)	> 100 µM (inactive)	> 100 µM (inactive)	> 100 µM (inactive)	> 100 µM (inactive)	> 100 µM (inactive)	–
CC(=O)/N=C1/N(/C=C2\C(=O)Oc3ccccc3C2=O)C(=O)/C(=C/c2ccc(Cl)cc2Cl)N1C	–	> 100 µM (inactive)	> 100 µM (inactive)	96.6 µM (inactive)	> 100 µM (inactive)	> 100 µM (inactive)	17.4 µM (inactive)	26.4 µM (inactive)	39.4 µM (inactive)	> 100 µM (inactive)	–	40 µM (inactive)	> 100 µM (inactive)	0.991 µM (active)	–	34.2 µM (inactive)	> 100 µM (inactive)	18.7 µM (inactive)	28.8 µM (inactive)	18.7 µM (inactive)
COc1cc(-c2oc3c(OC)c(O)c(OC)c(O)c3c(=O)c2OC)cc(OC)c1OC	> 100 µM (inactive)	24.6 µM (inactive)	83.8 µM (inactive)	> 100 µM (inactive)	> 100 µM (inactive)	> 100 µM (inactive)	51.2 µM (inactive)	31.8 µM (inactive)	36.7 µM (inactive)	65.8 µM (inactive)	55.5 µM (inactive)	31.3 µM (inactive)	14.1 µM (inactive)	14.3 µM (inactive)	–	35.4 µM (inactive)	40.9 µM (inactive)	20.8 µM (inactive)	21 µM (inactive)	> 100 µM (inactive)
CCCCCC/C=C\CCCCCCCCC(=O)c1cccc(OC)c1OC	> 100 µM (inactive)	29.2 µM (inactive)	87.3 µM (inactive)	> 100 µM (inactive)	–	> 100 µM (inactive)	64.9 µM (inactive)	34 µM (inactive)	27.5 µM (inactive)	71 µM (inactive)	> 100 µM (inactive)	35.4 µM (inactive)	> 100 µM (inactive)	65.2 µM (inactive)	–	84.7 µM (inactive)	> 100 µM (inactive)	> 100 µM (inactive)	> 100 µM (inactive)	> 100 µM (inactive)
O=C1c2ccc3c4ccc5c6c(ccc(c7ccc(c2c37)C(=O)N1CCN1CCCCC1)c64)C(=O)N(CCN1CCCCC1)C5=O	> 100 µM (inactive)	> 100 µM (inactive)	> 100 µM (inactive)	> 100 µM (inactive)	> 100 µM (inactive)	> 100 µM (inactive)	> 100 µM (inactive)	> 100 µM (inactive)	> 100 µM (inactive)	> 100 µM (inactive)	> 100 µM (inactive)	> 100 µM (inactive)	> 100 µM (inactive)	> 100 µM (inactive)	> 100 µM (inactive)	> 100 µM (inactive)	> 100 µM (inactive)	–	> 100 µM (inactive)	> 100 µM (inactive)
CC1C(c2ccccc2)OP(=O)(OC(C#N)c2ccccc2)N1C (stereo not drawn)	> 100 µM (inactive)	40.8 µM (inactive)	> 100 µM (inactive)	> 100 µM (inactive)	–	–	91.4 µM (inactive)	33.5 µM (inactive)	39.3 µM (inactive)	> 100 µM (inactive)	> 100 µM (inactive)	> 100 µM (inactive)	97.7 µM (inactive)	> 100 µM (inactive)	89.9 µM (inactive)	81.1 µM (inactive)	> 100 µM (inactive)	> 100 µM (inactive)	> 100 µM (inactive)	> 100 µM (inactive)
CC(=O)O[C@H]1[C@@H](OC2CCCC2(c2ccccc2)c2ccccc2)O[N+]([O-])=C[C@@]12COCc1cc3c(cc12)OCO3 (stereo partly drawn)	15.1 µM (inactive)	4.23 µM (inactive)	> 32.4 µM (inactive)	8.57 µM (inactive)	1.49 µM (inactive)	4.79 µM (inactive)	2.32 µM (inactive)	–	2.92 µM (inactive)	4.2 µM (inactive)	7.85 µM (inactive)	3.54 µM (inactive)	11.2 µM (inactive)	2.65 µM (inactive)	5.13 µM (inactive)	3.66 µM (inactive)	30.1 µM (inactive)	4.11 µM (inactive)	2.87 µM (inactive)	3.02 µM (inactive)
CC(C)=CC(=O)O[C@@H]1CC(C)(C)CC2C3=CCC4[C@]56CC[C@](O)(OC5)C(C)(C)C6CC[C@@]4(C)C3(C)CC[C@]21C(=O)O (stereo partly drawn)	54.3 µM (inactive)	> 100 µM (inactive)	22.8 µM (inactive)	33.7 µM (inactive)	63.2 µM (inactive)	34.2 µM (inactive)	61 µM (inactive)	27.8 µM (inactive)	48 µM (inactive)	33.2 µM (inactive)	63.1 µM (inactive)	31.8 µM (inactive)	> 100 µM (inactive)	> 100 µM (inactive)	–	> 100 µM (inactive)	> 100 µM (inactive)	–	74.1 µM (inactive)	> 100 µM (inactive)
c1cc2c(cc1NC1=NCCO1)CCC2	0.0869 µM (active)	> 10 µM (inactive)	> 10 µM (inactive)	> 10 µM (inactive)	> 10 µM (inactive)	–	> 10 µM (inactive)	> 10 µM (inactive)	9.75 µM (inactive)	> 10 µM (inactive)	> 10 µM (inactive)	> 10 µM (inactive)	–	1.03 µM (active)	7.5 µM (inactive)	8.04 µM (inactive)	> 10 µM (inactive)	9.1 µM (inactive)	> 10 µM (inactive)	> 10 µM (inactive)
CC(=O)OCC(OC(C)=O)C(OC(C)=O)C(OC(C)=O)C(/C=N\Nc1nc2ccccc2c(=O)[nH]1)=N/Nc1nc2ccccc2c(=O)[nH]1 (stereo not drawn)	> 100 µM (inactive)	> 100 µM (inactive)	> 100 µM (inactive)	> 100 µM (inactive)	–	> 100 µM (inactive)	> 100 µM (inactive)	> 100 µM (inactive)	> 100 µM (inactive)	> 100 µM (inactive)	–	–	> 100 µM (inactive)	> 100 µM (inactive)	> 100 µM (inactive)	> 100 µM (inactive)	> 100 µM (inactive)	> 100 µM (inactive)	> 100 µM (inactive)	> 100 µM (inactive)
C=CCN1CCN([C@H](c2ccc(C(=O)N(CC)CC)cc2)c2cccc(OC)c2)CC1	> 25 µM (inactive)	> 25 µM (inactive)	> 25 µM (inactive)	> 25 µM (inactive)	> 25 µM (inactive)	> 25 µM (inactive)	> 25 µM (inactive)	> 25 µM (inactive)	–	> 25 µM (inactive)	–	> 25 µM (inactive)	> 25 µM (inactive)	> 25 µM (inactive)	16.8 µM (inactive)	> 25 µM (inactive)	> 25 µM (inactive)	–	> 25 µM (inactive)	> 25 µM (inactive)
O=C(c1ccccc1)N1CCC(Nc2nccs2)O1 (stereo not drawn)	> 10 µM (inactive)	> 10 µM (inactive)	> 10 µM (inactive)	> 10 µM (inactive)	> 10 µM (inactive)	> 10 µM (inactive)	> 10 µM (inactive)	> 10 µM (inactive)	> 10 µM (inactive)	> 10 µM (inactive)	> 10 µM (inactive)	> 10 µM (inactive)	> 10 µM (inactive)	> 10 µM (inactive)	–	> 10 µM (inactive)	> 10 µM (inactive)	> 10 µM (inactive)	> 10 µM (inactive)	> 10 µM (inactive)
C[N+]12C=CC=C1C(N1CCCC1)c1scc(-c3ccccc3)c12 (stereo not drawn)	10.6 µM (inactive)	4.25 µM (inactive)	15.1 µM (inactive)	59.8 µM (inactive)	–	1.6 µM (inactive)	12.6 µM (inactive)	5.92 µM (inactive)	6 µM (inactive)	17.1 µM (inactive)	–	4.99 µM (inactive)	50.2 µM (inactive)	9.84 µM (inactive)	–	36.2 µM (inactive)	> 100 µM (inactive)	3.99 µM (inactive)	15.6 µM (inactive)	14.5 µM (inactive)
Cc1ccc(O)c(Cc2nc3ccccc3nc2-c2cccc(Cl)c2)c1	21 µM (inactive)	79.8 µM (inactive)	58.6 µM (inactive)	43.9 µM (inactive)	10.6 µM (inactive)	44.9 µM (inactive)	24.7 µM (inactive)	22.5 µM (inactive)	28.5 µM (inactive)	42 µM (inactive)	88.9 µM (inactive)	35.2 µM (inactive)	> 100 µM (inactive)	30.6 µM (inactive)	12.5 µM (inactive)	21.4 µM (inactive)	> 100 µM (inactive)	–	97.5 µM (inactive)	34.7 µM (inactive)
CCOP(=O)(OCC)/C(F)=C/c1ccc(F)cc1	> 100 µM (inactive)	> 100 µM (inactive)	> 100 µM (inactive)	> 100 µM (inactive)	> 100 µM (inactive)	–	> 100 µM (inactive)	> 100 µM (inactive)	> 100 µM (inactive)	> 100 µM (inactive)	> 100 µM (inactive)	> 100 µM (inactive)	> 100 µM (inactive)	> 100 µM (inactive)	> 100 µM (inactive)	> 100 µM (inactive)	> 100 µM (inactive)	> 100 µM (inactive)	> 100 µM (inactive)	> 100 µM (inactive)
